Earlier results as cited in patent US20060172014A1, “Treatment of lung cancer with active vitamin D compounds in combination with other treatments” (Novacea, Inc., priority 2003, published 2006).

Legend:
[1] = system: patients with refractory malignancies; conditions: weekly HDPA of calcitriol; Beer et al.

- Mean peak calcitriol levels [1]: within the therapeutic range
Structure (SMILES): C=C1/C(=C\C=C2/CCC[C@]3(C)[C@@H]([C@H](C)CCCC(C)(C)O)CC[C@@H]23)C[C@@H](O)C[C@@H]1O [calcitriol, 1α,25-dihydroxyvitamin D3]
- Growth of lung cancer cell line (lung cancer cell line; cell line containing high levels of vitamin D receptor): inhibit the growth
- Growth of lung cancer cell lines (lung cancer cell line; cell lines having insignificant levels of the receptor): not
- Dose-limiting toxicity [1]: no dose-limiting toxicity
